Marks after values point to notes of the source that are not given here.
What was measured:
[1] = tested on: ICR mice; assay: in vivo; conditions: female ICR mice; single-dose ip
Outline: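 MTD, the dose without mortality, body-weight loss over 10% from Day 0 or marked adverse signs, was found by stepwise up/down single intraperitoneal dosing of female SPF ICR mice. Vehicle: ethanol:Cremophor EL:saline 5:5:90. Animals weighed daily and clinically checked twice daily for up to 14 days.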

[2] = tested on: HCT-116 colon cancer xenografts; assay: Tumor growth inhibition of HCT-116 colon cancer xenografts in tumor-bearing nude mice (tumor volume, TGI %, RTV, T/C %); format: in vivo, Balb/c Nude mice; conditions: G10-G16 groups, single IP 400 mg/kg
Outline: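 Tumors in HCT-116-inoculated nude mice were sized three times weekly by diameter, with volume V=3/4π(D/2)^3. Significance set at P<0.05.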

[3] = Outline: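 Test compounds formulated in ethanol:Cremophor EL:saline (5:5:90), vehicle alone as control, in HCT-116 subcutaneous xenografts in female Balb/c nudes (6/group, start 60–150 mm^3). Weight measured three times weekly, tumour weight at end; unpaired t-test on Mean±SEM data.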
[4] = Day 1, G10-G16 groups, single IP 400 mg/kg, Mean±SEM
[5] = Day 2, G10-G16 groups, single IP 400 mg/kg, Mean±SEM
[6] = Day 4, G10-G16 groups, single IP 400 mg/kg, Mean±SEM
[7] = Day 7, G10-G16 groups, single IP 400 mg/kg, Mean±SEM
[8] = Day 9, G10-G16 groups, single IP 400 mg/kg, Mean±SEM
[9] = Day 11, G10-G16 groups, single IP 400 mg/kg, Mean±SEM
[10] = Day 14, G10-G16 groups, single IP 400 mg/kg, Mean±SEM
[11] = Day 16, G10-G16 groups, single IP 400 mg/kg, Mean±SEM
[12] = Day 18, G10-G16 groups, single IP 400 mg/kg, Mean±SEM
[13] = Day 21, G10-G16 groups, single IP 400 mg/kg, Mean±SEM
[14] = Day 23, G10-G16 groups, single IP 400 mg/kg, Mean±SEM
[15] = Day 25, G10-G16 groups, single IP 400 mg/kg, Mean±SEM
[16] = Day 28, G10-G16 groups, single IP 400 mg/kg, Mean±SEM
[17] = Day 30, G10-G16 groups, single IP 400 mg/kg, Mean±SEM

O=C(COc1nc(Cl)c(Cl)cc1Cl)OCC1OC(n2cc(-c3cn(Cc4ccccc4)nn3)c(NC(=O)OCc3ccc([N+](=O)[O-])cc3)nc2=O)C(F)(F)C1O (centres unmarked) [Compound G13]
dose that could be tolerated (maximum tolerated dose, MTD) [1]: 400 mg/kg | Day 0 (RTV) ([2]; Day 0): 1.00 | Tumor volume, Day 0 ([2]; Day 0, Mean±SEM): 61.03 ± 13.76* mm^3 | Day 1 (TGI %) ([2]; Day 1): 77.92% | Day 1 (RTV) ([2]; Day 1, Mean±SEM): 0.91 ± 0.12 | Tumor volume, Day 1 ([2]; Day 1, Mean±SEM): 48.89 ± 5.84** mm^3 | Day 2 (TGI %) ([2]; Day 2): 76.34% | Day 2 (RTV) ([2]; Day 2, Mean±SEM): 0.95 ± 0.11 | Tumor volume, Day 2 ([2]; Day 2, Mean±SEM): 52.50 ± 8.43** mm^3 | Day 4 (TGI %) ([2]; Day 4): 73.88% | Day 4 (RTV) ([2]; Day 4, Mean±SEM): 1.31 ± 0.07 | Tumor volume, Day 4 ([2]; Day 4, Mean±SEM): 77.58 ± 16.80** mm^3 | Day 7 (TGI %) ([2]; Day 7): 68.32% | Day 7 (RTV) ([2]; Day 7, Mean±SEM): 2.39 ± 0.28 | Tumor volume, Day 7 ([2]; Day 7, Mean±SEM): 137.02 ± 30.02** mm^3 | Day 9 (TGI %) ([2]; Day 9): 55.73% | Day 9 (RTV) ([2]; Day 9, Mean±SEM): 4.07 ± 0.37 | Tumor volume, Day 9 ([2]; Day 9, Mean±SEM): 261.35 ± 79.51* mm^3 | Day 11 (TGI %) ([2]; Day 11): 56.17% | Day 11 (RTV) ([2]; Day 11, Mean±SEM): 6.38 ± 0.77 | Tumor volume, Day 11 ([2]; Day 11, Mean±SEM): 427.82 ± 136.59** mm^3 | Day 14 (TGI %) ([2]; Day 14): 46.84% | Day 14 (RTV) ([2]; Day 14, Mean±SEM): 11.17 ± 1.45 | Tumor volume, Day 14 ([2]; Day 14, Mean±SEM): 765.65 ± 247.40* mm^3 | Day 16 (TGI %) ([2]; Day 16): 43.43% | Day 16 (RTV) ([2]; Day 16, Mean±SEM): 15.55 ± 1.37 | Tumor volume, Day 16 ([2]; Day 16, Mean±SEM): 1024.48 ± 288.64* mm^3 | Day 18 (TGI %) ([2]; Day 18): 36.04% | Day 18 (RTV) ([2]; Day 18, Mean±SEM): 19.86 ± 1.32 | Tumor volume, Day 18 ([2]; Day 18, Mean±SEM): 1278.22 ± 336.74 mm^3 | Day 21 (TGI %) ([2]; Day 21): 32.28% | Day 21 (RTV) ([2]; Day 21, Mean±SEM): 26.98 ± 0.99 | Tumor volume, Day 21 ([2]; Day 21, Mean±SEM): 1655.72 ± 370.44 mm^3 | Day 23 (TGI %) ([2]; Day 23): 39.64% | Day 23 (RTV) ([2]; Day 23, Mean±SEM): 27.42 ± 1.09 | Tumor volume, Day 23 ([2]; Day 23, Mean±SEM): 1425.63 ± 355.57 mm^3 | Day 25 (TGI %) ([2]; Day 25): 38.81% | Day 25 (RTV) ([2]; Day 25, Mean±SEM): 30.60 ± 1.01 | Tumor volume, Day 25 ([2]; Day 25, Mean±SEM): 1580.18 ± 380.76 mm^3 | Day 28 (TGI %) ([2]; Day 28): 44.77% | Day 28 (RTV) ([2]; Day 28, Mean±SEM): 35.76 ± 0.97 | Tumor volume, Day 28 ([2]; Day 28, Mean±SEM): 1485.25 ± 290.76 mm^3 | Day 30 (TGI %) ([2]; Day 30): 38.58% | Day 30 (RTV) ([2]; Day 30, Mean±SEM): 42.06 ± 2.09 | Tumor volume, Day 30 ([2]; Day 30, Mean±SEM): 1723.43 ± 289.91 mm^3 | Weight change rate, Day 0 ([3]; Day 0, G10-G16 groups, single IP 400 mg/kg): 0.00% | Weight of mice, Day 0 ([3]; Day 0, G10-G16 groups, single IP 400 mg/kg, Mean±SEM): 20.43 ± 0.27 g | Weight change rate, Day 1 [3, 4]: −6.73 ± 0.73 % | Weight of mice, Day 1 [3, 4]: 19.05 ± 0.17 g | Weight change rate, Day 2 [3, 5]: −6.78 ± 0.95 % | Weight of mice, Day 2 [3, 5]: 19.05 ± 0.35 g | Weight change rate, Day 4 [3, 6]: −3.29 ± 1.05% | Weight of mice, Day 4 [3, 6]: 19.77 ± 0.40 g | Weight change rate, Day 7 [3, 7]: −2.67 ± 1.20% | Weight of mice, Day 7 [3, 7]: 19.90 ± 0.48 g | Weight change rate, Day 9 [3, 8]: 0.07 ± 2.05% | Weight of mice, Day 9 [3, 8]: 20.47 ± 0.64 g | Weight change rate, Day 11 [3, 9]: 0.61 ± 2.23% | Weight of mice, Day 11 [3, 9]: 20.58 ± 0.69 g | Weight change rate, Day 14 [3, 10]: 0.35 ± 2.75% | Weight of mice, Day 14 [3, 10]: 20.53 ± 0.79 g | Weight change rate, Day 16 [3, 11]: 3.83 ± 3.60% | Weight of mice, Day 16 [3, 11]: 21.25 ± 0.94 g | Weight change rate, Day 18 [3, 12]: 4.84 ± 3.19 % | Weight of mice, Day 18 [3, 12]: 21.45 ± 0.85 g | Weight change rate, Day 21 [3, 13]: 4.12 ± 3.07 % | Weight of mice, Day 21 [3, 13]: 21.30 ± 0.81 g | Day 22 Mortality ([3]; Day 22, single IP dose (mg/kg)): 0% | Weight change rate, Day 23 [3, 14]: 5.17 ± 4.24% | Weight of mice, Day 23 [3, 14]: 21.44 ± 1.05 g | Weight change rate, Day 25 [3, 15]: 9.03 ± 4.91% | Weight of mice, Day 25 [3, 15]: 22.24 ± 1.24 g | Weight change rate, Day 28 [3, 16]: 12.25 ± 3.97% | Weight of mice, Day 28 [3, 16]: 23.08 ± 0.97 g | Weight change rate, Day 30 [3, 17]: 13.32 ± 4.25% | Weight of mice, Day 30 [3, 17]: 23.30 ± 1.07 g | clinical symptoms ([3]; after single IP dose, compared with model control group): no significant differences in clinical symptoms
